Measured values reported in patent US10098902B2, “Arginase inhibitors as therapeutics” (Mars, Incorporated, priority 2010, dated 2018).

Experiments:
[1] = system: central airways in the murine chronic model; details: murine chronic asthma model; cited from earlier work
[2] = system: spontaneously hypertensive animals; details: cited from earlier work
bacterial arginase = details: cited from earlier work
[3] = system: animals undergoing experimental autoimmune encephalomyelitis (EAE); details: mouse, in vivo; cited from earlier work
[4] = target: human arginase II (ARG II) (Homo sapiens (Human), UniProt P78540); assay: Inhibition of arginase II, spectrophotometric urea assay at 530 nm; type: biochemical; details: potency rank 1-5; pH 7.4, 37° C., 60 minutes
Sequence of human arginase II (ARG II) (P78540 23-354): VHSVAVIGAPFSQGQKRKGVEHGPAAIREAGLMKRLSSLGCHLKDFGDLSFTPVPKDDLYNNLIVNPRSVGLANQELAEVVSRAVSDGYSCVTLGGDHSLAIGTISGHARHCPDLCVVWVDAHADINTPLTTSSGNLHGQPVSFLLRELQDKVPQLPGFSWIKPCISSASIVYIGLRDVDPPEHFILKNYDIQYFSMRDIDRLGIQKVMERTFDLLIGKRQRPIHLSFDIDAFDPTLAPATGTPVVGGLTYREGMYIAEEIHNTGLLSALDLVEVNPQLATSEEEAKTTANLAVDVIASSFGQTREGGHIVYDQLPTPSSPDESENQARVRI
Experimental: (§1) Inhibition of arginase I (ARG I) and arginase II (ARG II) by Formula I or Formula II compounds is followed spectrophotometrically at 530 nm. The compound to be tested was dissolved in DMSO at an initial concentration 50-fold greater than its final concentration in the cuvette. 10 μl of the stock solution was diluted in 90 μl of the assay buffer that comprises 0.1M sodium phosphate buffer containing 130 mM NaCl, pH 7.4, to which is added ovalbumin (OVA) at a concentration of 1 mg/ml. Solutions of arginase I and II were prepared in 100 mM sodium phosphate buffer, pH 7.4 containing 1 mg/ml of OVA to give an arginase stock solution at a final concentration of 100 ng/ml.
(§2) To each well of a 96-well microtiter plate was added 40 μl of enzyme, 10 μl of an inventive compound and 10 μl of enzyme substrate (L-arginine+manganese sulfate). For wells that were used as positive controls, only the enzyme and its substrate were added, while wells used as negative controls contained only manganese sulfate.
(§3) After incubating the microtiter plate at 37° C. for 60 minutes, 150 μl of a urea reagent obtained by combining equal proportions (1:1) of reagents A and B is added to each well of the microtiter plate to stop the reaction. The urea reagent is made just before use by combining Reagent A (10 mM o-phthaldialdehyde, and 0.4% polyoxyethylene (23) lauryl ether (w/v) in 1.8 M sulfuric acid) with Reagent B (1.3 mM primaquine diphosphate, 0.4% polyoxyethylene (23) lauryl ether (w/v), 130 mM boric acid in 3.6 mM sulfuric acid). After quenching the reaction mixture, the microtiter plate is allowed to stand for an additional 10 minutes at room temperature to allow the color to develop. The inhibition of arginase was computed by measuring the optical density (OD) of the reaction mixture at 530 nm and normalizing the OD value to percent inhibition observed in the control. The normalized OD is then used to generate a dose-response curve by plotting the normalized OD values against log [concentration] and using regression analysis to compute the IC50 values.

human arginase I (ARG I) = human arginase I (ARG I) (Homo sapiens (Human), UniProt P05089); assay: Inhibition of arginase I, spectrophotometric urea assay at 530 nm; type: biochemical; details: potency rank 1-5; pH 7.4, 37° C., 60 minutes
Sequence of human arginase I (ARG I) (P05089 whole entry): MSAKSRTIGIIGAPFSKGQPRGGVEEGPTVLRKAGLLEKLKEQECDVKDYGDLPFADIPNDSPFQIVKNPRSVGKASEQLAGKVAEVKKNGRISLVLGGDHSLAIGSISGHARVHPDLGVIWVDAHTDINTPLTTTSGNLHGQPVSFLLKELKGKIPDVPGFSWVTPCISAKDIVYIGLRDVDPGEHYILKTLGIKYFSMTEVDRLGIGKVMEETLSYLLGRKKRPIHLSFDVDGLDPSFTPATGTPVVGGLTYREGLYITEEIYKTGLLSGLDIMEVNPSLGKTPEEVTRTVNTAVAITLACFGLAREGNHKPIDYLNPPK
Experimental: as §1, §2, §3

Structure (SMILES)	IC50 [4]	IC50 (human arginase I (ARG I))	other results
N[C@@H](CSCCB(O)O)C(=O)O [S-(2-boronoethyl)-L-cysteine]	–	–	methacholine induced responsiveness of the central airways [1]: attenuated
N=C(NO)NCC[C@H](N)C(=O)O [nor-NOHA, N^ω-hydroxy-nor-L-arginine]	–	–	effect on blood pressure [2]: lowered blood pressure
NC(=NCCC[C@H](N)C(=O)O)NO [NOHA]	–	–	CD3 expression on T-cells (bacterial arginase): reestablished CD3 expression on T-cells; production of NO by macrophages (bacterial arginase): enhanced production of NO by macrophages
NC(CCCCB(O)O)C(=O)O (stereo not drawn) [ABH, amino-6-boronohexanoic acid]	–	–	severity of EAE versus control animals [3]: much milder form of EAE
N[C@@]1(C(=O)O)CCO[C@H]1CCCB(O)O [Example 4, (2S,3S)-3-amino-2-(3-boronopropyl)tetrahydrofuran-3-carboxylic acid]	0.1 to 250 nM	0.1 to 250 nM	–
N[C@H]1C[C@H](CCCB(O)O)[C@](N)(C(=O)O)C1 [Example 61, (1S,2S,4S)-1,4-diamino-2-(3-boronopropyl)cyclopentanecarboxylic acid]	251 to 1000 nM	251 to 1000 nM	–
N[C@@]1(C(=O)O)CNC[C@@H]1CCCB(O)O [Example 8, (3R,4S)-3-amino-4-(3-boronopropyl)pyrrolidine-3-carboxylic acid]	251 to 1000 nM	251 to 1000 nM	–

The next lines start with results.

IC50 [4]	IC50 (human arginase I (ARG I))	Structure (SMILES)	other results
251 to 1000 nM	0.1 to 250 nM	N[C@@]1(C(=O)O)CN(CCN2CCCCC2)C[C@@H]1CCCB(O)O [Example 33, (3R,4S)-3-amino-4-(3-boronopropyl)-1-(2-(piperidin-1-yl)ethyl)pyrrolidine-3-carboxylic acid]	–
0.1 to 250 nM	0.1 to 250 nM	N[C@@]1(C(=O)O)CN(CC2Cc3cc(Cl)ccc3CN2)C[C@@H]1CCCB(O)O (stereo partly drawn) [Example 51, (3R,4S)-3-amino-4-(3-boronopropyl)-1-((6-chloro-1,2,3,4-tetrahydroisoquinolin-3-yl)methyl)pyrrolidine-3-carboxylic acid]	–
251 to 1000 nM	251 to 1000 nM	N[C@@]1(C(=O)O)CN(c2cncc(C(=O)O)c2)C[C@@H]1CCCB(O)O [Example 25, 5-((3R,4S)-3-amino-4-(3-boronopropyl)-3-carboxypyrrolidin-1-yl)nicotinic acid]	–
1000 to 2000 nM	251 to 1000 nM	Nc1ccccc1S(=O)(=O)N1C[C@H](CCCB(O)O)[C@](N)(C(=O)O)C1 [Example 50, (3R,4S)-3-amino-1-(2-aminophenylsulfonyl)-4-(3-boronopropyl)pyrrolidine-3-carboxylic acid]	–
1000 to 2000 nM	251 to 1000 nM	NC(Cc1ccc(C(F)(F)F)cc1)C(=O)N1C[C@H](CCCB(O)O)[C@](N)(C(=O)O)C1 (mixture of isomers) [Example 54, (3R,4S)-3-amino-1-(2-amino-3-(4-(trifluoromethyl)phenyl)propanoyl)-4-(3-boronopropyl)pyrrolidine-3-carboxylic acid]	–
